# Assay results: US10935552B2, “Aie luminogens for visualization and treatment of cancer” (THE HONG KONG UNIVERSITY OF SCIENCE AND TECHNOLOGY, priority 2015, dated 2021)
# Counter-ions that a name gives are not always drawn.
# Key:
# [1] = MTT cell viability assay, HeLa cells; type: cell-based, human; details: human, HeLa cells, 15 μM, MTT
# Description: Hela cells were incubated with different concentrations of Naph-IQ in culture medium for 24 hours.
# Before employing AIE-LysoY as a fluorescent visualizer of lysosome, a 3-(4,5-dimethyl-2-thiazolyl)-2,5-diphenyltetrazolium bromide (MTT) cell proliferation assay was first conducted to evaluate its cytotoxicity. […] The good biocompatibility of AIE-LysoY enables its application as a fluorescent tracer to follow the autophagic process of lysosome.
# [2] = tested on: lysosome; assay: Lysosome imaging in HeLa cells, co-staining with LTR; type: cell-based, human; details: HeLa
# Description: Then, AIE-LysoY was applied to lysosome imaging and its lysosome-targeting performance was assessed by fluorescence microscope. HeLa cells were stained with 10 μM of AIE-LysoY for 10 min, followed by washing away the abundant molecules of AIE-LysoY and incubation with 50 nM of LTR for 30 min. […] The fluorescence of AIE-LysoY overlaps perfectly with that of LTR, indicating the lysosome-targeting of AIE-LysoY.
# Quantitative analysis of the degree of overlapping of these two fluorescence signals by Pearson's coefficient (Rr), which depicts the degree of linear dependence between two variables, gives an overlapping coefficient of 0.90. The high Rr value proves that AIE-LysoY is a lysosome-selective probe. […] Changing the staining time from 10 min to 60 min, the specificity to lysosome is retained, as well as the emission contrast.
# To design the lysosome-specific bioprobe, a molecular engineering approach was employed. The precursor of AIE-LysoY, FAS-Br, and two morpholine-functionalized AIEgens, TPE-2Mor and Nred-mor were prepared and applied to cell imaging. The molecular structures of TPE-2mor and Nred-mor are shown below: […]
# [3] = tested on: HeLa cells; assay: Photostability by continuous confocal scanning of stained HeLa cells; type: cell-based, human
# From the text: Compared with LTR, the working concentration of AIE-LysoY is much higher. LTR is not more sensitive than AIE-LysoY. As mentioned previously, LTR can only be used at low concentrations to avoid the ACQ effect. At such a low working concentration, the fluorescent probes molecularly disperse in the organelle and can be easily photooxidized by continuous excitation light, resulting in the low photostability of these probes. In order to evaluate the photostability of AIE-LysoY, a confocal microscope (Zeiss laser scanning confocal microscope LSM7 DUO) was applied to continuously scan cells stained by AIE-LysoY. The photostability of LTR was also measured for comparison. The power of excitation light (405 nm for AIE-LysoY and 561 nm for LTR) were unified by using a power meter. […] In contrast, the fluorescence intensity from LTR dropped to lower than 50% of its initial value after only 25 scans (FIG. 28, hollow circle line). The slight fluctuation of fluorescence signal can be ascribed to the dynamic movement of lysosome in living cells. The excellent photostability of AIE-LysoY may stem from its nanoparticles nature in lysosome imaging, which can protect the chromophore inside the particles from being photooxidzied. In this way, the fluorescence of […] can pertain after a long-time irradiation. […]
# [4] = tested on: HeLa cells; assay: Cancer cell imaging for HeLa cells by IDA-TPE; type: cell-based, human; details: 10 μM, 30 mins
# Description: Cell Culture. HeLa cells were cultured in MEM containing 10% FBS and 1% antibiotics (100 units/mL penicillin and 100 µg/mL streptomycin) in a 5% CO2 humidity incubator at 37° C.
# The HeLa cells were grown overnight on a 35 mm petri dish with a cover slip. […] The cells were imaged under a fluorescent microscope (BX41 Microscope) using same excitation and emission filters: excitation filter=330-385 nm, dichroic mirror=420 nm, and emission filter=400 nm long pass.
# [5] = tested on: MCF-7 cells; assay: Fluorescence microscopy and long-term tracing of MCF-7 cells treated with TPE-TMX; type: cell-based; details: for Fluorescence of stained cells with increasing number of passages: long-term tracing
# From the text: (§1) To examine this hypothesis, fluorescence microscopy of different cell lines treated with TPE-TMX was undertaken. […] Lysosome is an acidic enzyme enriched organelle responsible for digesting intracellular biomolecules, while TPE-TMX with a basic amino group is more favored to target the lysosomes in cells. Once the molecules are accumulated on the surface of lysosome, their intermolecular motions are restricted, which activates the AIE process and thus lights up the organelle.
# The whole cells exclude nuclei are highly emissive after the treatment of TPE-TMX for 192 hrs, which is proposed as autophagy. This mechanism is thought to be a degradation system that is mediated by a unique organelle called the autophagosome and then fuses with lysosome to form an autolysosome. Once the autolysosomes are formed, the cells become dysfunctional and eventually cause cell death. […] This is the first time that autophagy can be fluorescently monitored using a theranostic agent for breast cancer cells.
# [6] = tested on: MCF-7 cells; assay: Photo-bleaching resistance by continuous scanning of stained MCF-7 cells; type: cell-based; details: MCF-7, 2 μM 30 min, 50 scans, total irradiation 3 min, 0.1 mW
# Description: In order to determine the working mechanism of TPE-TMX to MCF-7 cells, probes with long-term tracking are highly pursued. To compare the photo-bleaching resistance between TPE-TMX and LTR, continuous scanning of the stained MCF-7 cells by UV irradiation was carried out and the PL intensity at each scan was recorded. These two sets of MCF-7 cells were first incubated in a medium for 24 hrs and then stained with TPE-TMX and LTR at 2 μM for 30 min, respectively. The excitation power from 405 nm and 561 nm channels of the microscope was unified as 0.1 mW. The initial fluorescence intensity for the dyes was normalized and the percentage of intensity loss was calculated.
# [7] = cited from earlier work
# [8] = tested on: ER independent breast cancer cells (MDA-MB-231 cells); assay: MTT cytotoxicity of TPE-TMX, MDA-MB-231 cells; type: cell-based; details: MDA-MB-231, up to 10 μM
# Description: (§2) For the rational molecular design of TPE-TMX, it is extremely critical that it can restore its therapeutic ability as TMX after the modification. To investigate its therapeutic performance, the cytotoxicity of TPE-TMX to a variety of cell lines was evaluated using a MTT assay (FIG. 33). […] Therefore, TPE-TMX may form a complex with receptor that can manifest selective accumulation in MCF-7 cells and lead to cell death.
# [9] = tested on: different cell lines; assay: Fluorescence microscopy of different cell lines treated with TPE-TMX; type: cell-based
# From the text: as §1
# [10] = tested on: MCF-7 cells; assay: Lysosomal imaging in MCF-7 cells, co-staining with LTR; type: cell-based
# Description: The behavior of TPE-TMX in cellular settings was studied as compared to TMX. MCF-7 cells were incubated with 2 μM TPE-TMX and […] TMX for 24 hrs, respectively. The cells were then washed and directly observed under the microscope without fixation. […] However, the exact intracellular location of TMX cannot be confirmed by fluorescent microscopy because its emission wavelength is not in the range of the visible spectrum. Therefore, a series of commercial fluorescent markers were used to image drug delivery of TMX. […] On the other hand, TPE-TMX, without any aid of fluorescent dye, can be successfully monitored in the cells thanks to its intense blue emission. The controls display no emission under UV irradiation.
# To further confirm the subcellular distribution of TPE-TMX, LTR was also used to co-stain MCF-7 cells with TPE-TMX. […] As expected, TPE-TMX is a specific fluorescent dye to visualize lysosomal organelle structures as well as monitor the drug release.
# [11] = tested on: a variety of cell lines; assay: MTT cytotoxicity of TPE-TMX, other cell lines; type: cell-based; details: up to 10 μM
# Description: as §2
# [12] = tested on: ER+ breast cancer cells (MCF-7 cells); assay: MTT cytotoxicity of TPE-TMX, MCF-7 cells; type: cell-based
# Description: as §2
# [13] = tested on: HeLa cells; assay: Cancer cell imaging for HeLa cells (TTE, TFE, fl-TFE); type: cell-based, human
# Description: (§3) Cell Culture. HeLa cells were cultured in MEM containing 10% FBS and 1% antibiotics (100 units/mL penicillin and 100 µg/mL streptomycin) in a 5% CO2 humidity incubator at 37° C. Cell Imaging. Lung cancer cell A549 were cultured in DMEM containing 10% FBS and antibiotics (100 units/mL penicillin and 100 µg/mL streptomycin) in a 5% CO2 humidity incubator at 37° C. Two different kind of cells were grown overnight on a 35 mm petri dish with a cover slip. The live cells were incubated with 10 μM of TTE for 15/30 mins, TFE for 30′ and fl-TFE for 30′ and 5 h (the last two have been tested only in HeLa cells). In a typical experiment, 2 μL of a 10 mM stock solution of TTE in DMSO were diluted to 1 mL with cell culture medium, followed by further dilution to desired concentration. The cells were imaged under a fluorescent microscope (BX41 Microscope) using same excitation and emission filters: excitation filter=330-385 nm, dichroic mirror=420 nm, and emission filter=400 nm long pass.
# The HeLa cells were grown overnight on a 35 mm petri dish with a cover slip. The live cells were incubated with 10 μM of TTE for 30 mins, which are shown in FIG. 17A-B. The HeLa cells were incubated with 50 μM oleic acid for 6 hrs and then were co-stained by 10 μM TTE and 1 μg/mL for 15 mins.
# [14] = tested on: Lung cancer cell A549; assay: Cancer cell imaging for lung cancer cell A549 by TTE; type: cell-based; details: A549, 10 μM TTE, 15 mins
# Description: as §3
# The A549 cells were grown overnight on a 35 mm petri dish with a cover slip. The live cells were incubated with 10 μM of TTE for 30 mins. The A549 cells were incubated with 10 μM TTE and 1 μg/mL for 15 mins.
# [15] = tested on: HeLa cells; assay: Autophagy induction by rapamycin in AIE-LysoY-stained HeLa cells; type: cell-based, human; details: HeLa stained with 10 μM AIE-LysoY, prolonged rapamycin treatment
smiles,measurement,setting,value
"Oc1cc(OCCCCCCN2CCOCC2)ccc1/C=N/N=C1c2ccccc2-c2ccccc21 [AIE-LysoY, (E)-2-(((9H-fluoren-9-ylidene)hydrazono)methyl)-5-((6-morpholinohexyl)oxy) phenol]","viability at 24 h, 15 µM",[1],> 80%
same,Lysosome targeting,"[2]; 10 μM 10 min, then 50 nM LTR 30 min",selectively accumulates in the dot-shaped lysosomes
same,Pearson's coefficient (Rr) of overlap with LTR,"[2]; 10 μM AIE-LysoY, 50 nM LTR",0.90
same,Fluorescence signal after continuous scanning,"[3]; 405 nm, total irradiation time ~6 min",almost remain unchanged
"O=C(O)CN(CC(=O)O)Cc1ccc(C(=C(c2ccccc2)c2ccccc2)c2ccccc2)cc1 [IDA-TPE, iminodiacetic acid tetraphenylethene]",Cell uptake,[4],can go inside the cancer cell
same,Fluorescence staining of cells,[4],can target HeLa cells
"CN(C)CCNC(=O)CCc1ccc2n1[B-](F)(F)[N+]1=C(c3ccc[nH]3)C=CC1=C2 [LTR, reference compound]",Fluorescence of stained cells with increasing number of passages,[5],dramatically weakened
same,Fluorescence intensity relative to initial value,"[3]; 561 nm, after 25 scans",lower than 50%
same,PL signal loss,[6],more than 55%
"O=C(O)C(F)(F)F [TFA, trifluoroacetic acid]",pKa,[7],about −0.3
CN(C)CCOc1ccc(C(=C(c2ccccc2)c2ccccc2)c2ccccc2)cc1 [TPE-TMX],Cell viability by MTT,[8],not dramatically altered
same,Subcellular localisation,[9]; all tested cell lines,localized on lysosomes in all tested cell lines
same,Morphological effect,[9]; other cell lines,no obvious morphological change
same,Subcellular distribution,"[10]; MCF-7, 2 μM 30 min, then LTR 15 min",selectively stains lysosomes
same,Pearson correlation coefficient of co-localization with LTR (r),"[10]; MCF-7, 2 μM TPE-TMX",0.96
same,Morphological effect,[5]; MCF-7,"induces the formation of vacuole, lysosomal swelling and cell death"
same,Effect on cells in continuous monitoring,"[5]; MCF-7, 2 μM","induce vacuoles, lysosome swelling, and loss of the cell population"
same,Fluorescence intensity in cells,[5]; MCF-7 versus other cell lines,more prominent in MCF-7 cells compared to the others
same,Fluorescence of stained cells with increasing number of passages,[5],increases with increasing number of passages
same,Cell viability by MTT,[11],not dramatically altered
same,Cytotoxicity (therapeutic response) by MTT,[12],has only the therapeutic response to ER+ breast cancer cells (MCF-7 cells)
same,PL signal loss,[6],no significant PL loss
"c1csc(C(=C(c2cccs2)c2cccs2)c2cccs2)c1 [TTE, TetraThienylEthene]",Ability to enter cells as bioprobe,"[13]; 10 μM, TTE in HeLa and A549, TFE and fl-TFE only in HeLa",the only one able to enter inside the cells
same,Organelle selectivity (overlap with BODIPY),"[13]; HeLa, 50 μM oleic acid 6 hrs, 10 μM TTE, 15 mins",can selectively target lipid droplets
same,Organelle selectivity (overlap with BODIPY),[14],can selectively target lipid droplets
CO[C@H]1C[C@@H]2CC[C@@H](C)[C@@](O)(O2)C(=O)C(=O)N2CCCC[C@H]2C(=O)O[C@H]([C@H](C)C[C@@H]2CC[C@@H](O)[C@H](OC)C2)CC(=O)[C@H](C)/C=C(\C)[C@@H](O)[C@@H](OC)C(=O)[C@H](C)C[C@H](C)/C=C/C=C/C=C/1C [rapamycin],Lysosome number (yellow spots),[15],increased
